Laboratory results published in patent publication US20250136614A1, “2,7-SUBSTITUTED PYRROLO[2,1-F][1,2,4]TRIAZINE COMPOUND HAVING PROTEIN KINASE INHIBITORY ACTIVITY” (Magicbullettherapeutics Co., Ltd., priority 2021, published 2025).

Legend:
Type in all cases: cell-based
Ba/F3 FLT3 (ITD/D835Y) = target: T1, Ba/F3 FLT3 (ITD/D835Y) (Homo sapiens, UniProt P36888, D835Y, cells depend on it, form not given); test: Ba/F3 cell growth inhibition (CellTiter-Glo, 72 hours); details: read-out: Ba/F3 GI50s (μM) FLT3 (ITD/D835Y)
T1 sequence (P36888 1-993 D835Y): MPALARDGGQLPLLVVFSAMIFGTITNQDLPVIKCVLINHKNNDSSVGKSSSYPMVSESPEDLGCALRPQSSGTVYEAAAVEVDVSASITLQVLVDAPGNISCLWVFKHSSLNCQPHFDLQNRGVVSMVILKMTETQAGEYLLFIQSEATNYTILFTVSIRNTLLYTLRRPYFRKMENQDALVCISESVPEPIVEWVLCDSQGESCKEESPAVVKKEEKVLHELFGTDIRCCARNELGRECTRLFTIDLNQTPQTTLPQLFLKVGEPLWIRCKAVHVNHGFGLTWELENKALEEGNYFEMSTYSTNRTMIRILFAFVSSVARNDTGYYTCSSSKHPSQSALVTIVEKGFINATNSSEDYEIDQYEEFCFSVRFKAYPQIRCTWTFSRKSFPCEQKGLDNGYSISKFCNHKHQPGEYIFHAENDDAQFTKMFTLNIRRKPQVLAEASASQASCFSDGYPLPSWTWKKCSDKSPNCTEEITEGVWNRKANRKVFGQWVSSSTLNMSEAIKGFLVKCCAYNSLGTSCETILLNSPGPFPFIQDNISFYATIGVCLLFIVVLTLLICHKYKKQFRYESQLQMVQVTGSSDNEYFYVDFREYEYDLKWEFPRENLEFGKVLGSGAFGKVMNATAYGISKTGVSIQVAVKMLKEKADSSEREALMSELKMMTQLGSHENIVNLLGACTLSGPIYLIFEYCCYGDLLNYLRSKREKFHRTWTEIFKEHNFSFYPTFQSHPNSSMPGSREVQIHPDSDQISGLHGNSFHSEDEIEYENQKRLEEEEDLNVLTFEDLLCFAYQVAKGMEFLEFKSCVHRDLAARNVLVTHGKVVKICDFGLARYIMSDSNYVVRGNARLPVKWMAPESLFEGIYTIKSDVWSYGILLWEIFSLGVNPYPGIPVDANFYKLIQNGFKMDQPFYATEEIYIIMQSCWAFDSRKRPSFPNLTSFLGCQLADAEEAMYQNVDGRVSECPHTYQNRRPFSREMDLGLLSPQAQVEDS

colo205 = test: Cancer cell growth inhibition (CellTiter-Glo, 72 hours); details: Homo sapiens, COLO 205, colo205 cells, read-out: GI50s (μM) colo205
Description: (§1) Seeding 3000 cells per well in a 96-well plate. After cell stabilization, treat the cells with compounds diluted in 0.5% DMSO at a ⅓ serial dilution and culture for 72 hours. Following treatment with CellTiter-Glo, luminescence is produced only in the presence of ATP, as luciferase degrades luciferin. Luminescence values were measured using Envision (PerkinElmer). Based on the measured luminescence values, the concentration of compounds causing cell death was calculated to determine the GI50 value.
(§2) The activity values were categorized into three levels • A: IC50<1 μM • B: 1 μM≤IC50<10 μM, • C: IC50≥10 μM

H358 = test: as above; details: Homo sapiens, NCI-H358, H358 cells, read-out: GI50s (μM) H358
Description: as §1, §2

H1975 = test: as above; details: Homo sapiens, NCI-H1975, H1975 cells, read-out: GI50s (μM) H1975
Description: as §1, §2

HCT116 = test: as above; details: Homo sapiens, HCT-116, HCT116 cells, read-out: GI50s (μM) HCT116
Description: as §1, §2

H23 = test: as above; details: Homo sapiens, NCI-H23, H23 cells, read-out: GI50s (μM) H23
Description: as §1, §2

MDA-MB-231 = test: as above; details: Homo sapiens, MDA-MB-231 cells, read-out: GI50s (μM) MDA-MB-231
Description: as §1, §2

| GI50 (Ba/F3 FLT3 (ITD/D835Y)) [µM] | IC50 (colo205) [µM] | IC50 (H358) [µM] | IC50 (H1975) [µM] | IC50 (HCT116) [µM] | IC50 (H23) [µM] | IC50 (MDA-MB-231) [µM] | Compound |
| --- | --- | --- | --- | --- | --- | --- | --- |
| < 1 | ≥ 10 | 1 to 10 | 1 to 10 | 1 to 10 | 1 to 10 | ≥ 10 | Cc1ncsc1-c1ccc(CNC(=O)[C@@H]2C[C@@H](O)CN2C(=O)[C@@H](NC(=O)CCOCCOCCN2CCN(c3ccc(Nc4ncc5ccc(-c6cccc(NS(C)(=O)=O)c6)n5n4)cc3)CC2)C(C)(C)C)cc1 [Example 84, (2S,4R)-1-((S)-3,3-dimethyl-2-(3-(2-(2-(4-(4-((7-(3-(methanesulfonamido)phenyl)pyrrolo[2,1-f][1,2,4]triazin-2-yl)amino)phenyl)piperazin-1-yl)ethoxy)ethoxy)propanamido)butanoyl)-4-hydroxy-N-(4-(4-methylthiazol-5-yl)benzyl)pyrrolidin-2-carboxamide] |
| < 1 | 1 to 10 | 1 to 10 | 1 to 10 | 1 to 10 | 1 to 10 | ≥ 10 | O=C1COCCOc2ccc(cc2)-c2ccc3cnc(nn23)Nc2cnn(c2)CCCN1 [Example 35, (2^1Z,4^4E)-4^1H-11,14-dioxa-3,8-diaza-2(7,2)-pyrrolo[2,1-f1][1,2,4]triazina-4(4,1)-pyrazola-1(1,4)-benzenacyclotetradecaphan-9-one] |
| < 1 | ≥ 10 | ≥ 10 | ≥ 10 | 1 to 10 | 1 to 10 | ≥ 10 | O=C1CCCCCCOc2ccc(cc2)-c2ccc3cnc(nn23)Nc2cnn(c2)CCCN1 [Example 37, (2^1Z,4^4E)-4^1H-16-oxa-3,8-diaza-2(7,2)-pyrrolo[2,1-f1][1,2,4]triazina-4(4,1)-pyrazola-1(1,4)-benzenacyclohexadecaphan-9-one] |
| < 1 | ≥ 10 | ≥ 10 | ≥ 10 | < 1 | 1 to 10 | ≥ 10 | O=C1CCCCOc2ccc(cc2)-c2ccc3cnc(nn23)Nc2cnn(c2)C2CCN1CC2 [Example 25, (2^1Z,4^4E)-4^1H-11-oxa-3-aza-2(7,2)-pyrrolo[2,1-f][1,2,4]triazina-5(4,1)-piperidina-4(4,1)-pyrazola-1(1,4)-benzenacycloundecaphan-6-one] |
| < 1 | ≥ 10 | 1 to 10 | ≥ 10 | 1 to 10 | ≥ 10 | ≥ 10 | O=C1CCCCOc2ccc(cc2)-c2ccc3cnc(nn23)Nc2ccc(cc2)OCCCN1 [Example 38, (Z)-5,15-dioxa-3,9-diaza-2(7,2)-pyrrolo[2,1-f][1,2,4]triazina-1,4(1,4)-dibenzenacyclopentadecaphan-10-one] |
| 1 to 10 | 1 to 10 | 1 to 10 | 1 to 10 | 1 to 10 | 1 to 10 | ≥ 10 | O=C1CCCCCCOc2ccc(cc2)-c2ccc3cnc(nn23)Nc2ccc(cc2)N2CCN1CC2 [Example 24, (Z)-13-oxa-3-aza-2(7,2)-pyrrolo[2,1-f][1,2,4]triazina-5(1,4)-piperazina-1,4(1,4)-dibenzenacyclotridecaphan-6-one] |
| < 1 | 1 to 10 | 1 to 10 | 1 to 10 | 1 to 10 | 1 to 10 | ≥ 10 | O=C1COCCOc2ccc(cc2)-c2ccc3cnc(nn23)Nc2ccc(cc2)OCCCN1 [Example 28, (Z)-5,12,15-trioxa-3,9-diaza-2(7,2)-pyrrolo[2,1-f][1,2,4]triazina-1,4(1,4)-dibenzenacyclopentadecaphan-10-one] |

| Compound | GI50 (Ba/F3 FLT3 (ITD/D835Y)) [µM] | IC50 (colo205) [µM] | IC50 (H358) [µM] | IC50 (H1975) [µM] | IC50 (HCT116) [µM] | IC50 (H23) [µM] | IC50 (MDA-MB-231) [µM] |
| --- | --- | --- | --- | --- | --- | --- | --- |
| CC(=O)N1CCCn2cc(cn2)Nc2ncc3ccc(n3n2)-c2ccc(cc2)OCC1 [Example 3, 1-((2^1Z,4^4E)-4^1H-11-oxa-3,8-diaza-2(7,2)-pyrrolo[2,1-f1][1,2,4]triazina-4(4,1)-pyrazola-1(1,4)-benzenacycloundecaphane-8-yl)ethan-1-one] | < 1 | 1 to 10 | 1 to 10 | 1 to 10 | < 1 | 1 to 10 | 1 to 10 |
| CS(=O)(=O)N1CCCn2cc(cn2)Nc2ncc3ccc(n3n2)-c2ccc(cc2)OCC1 [Example 9, (2^1Z,4^4E)-8-(methylsulfonyl)-4^1H-11-oxa-3,8-diaza-2(7,2)-pyrrolo[2,1-f][1,2,4]triazina-4(4,1)-pyrazola-1(1,4)-benzenecycloundecaphane] | < 1 | 1 to 10 | < 1 | 1 to 10 | < 1 | 1 to 10 | ≥ 10 |
